Target: T1, AcCPR (Aphis citricidus, UniProt A0A346QRP0)
T1 construct: full-length ORF in pFastBac HT A, 6xHis-tagged, Sf9 cell extract (soluble supernatant; called microsomes in results)
T1 sequence (A0A346QRP0 1-681): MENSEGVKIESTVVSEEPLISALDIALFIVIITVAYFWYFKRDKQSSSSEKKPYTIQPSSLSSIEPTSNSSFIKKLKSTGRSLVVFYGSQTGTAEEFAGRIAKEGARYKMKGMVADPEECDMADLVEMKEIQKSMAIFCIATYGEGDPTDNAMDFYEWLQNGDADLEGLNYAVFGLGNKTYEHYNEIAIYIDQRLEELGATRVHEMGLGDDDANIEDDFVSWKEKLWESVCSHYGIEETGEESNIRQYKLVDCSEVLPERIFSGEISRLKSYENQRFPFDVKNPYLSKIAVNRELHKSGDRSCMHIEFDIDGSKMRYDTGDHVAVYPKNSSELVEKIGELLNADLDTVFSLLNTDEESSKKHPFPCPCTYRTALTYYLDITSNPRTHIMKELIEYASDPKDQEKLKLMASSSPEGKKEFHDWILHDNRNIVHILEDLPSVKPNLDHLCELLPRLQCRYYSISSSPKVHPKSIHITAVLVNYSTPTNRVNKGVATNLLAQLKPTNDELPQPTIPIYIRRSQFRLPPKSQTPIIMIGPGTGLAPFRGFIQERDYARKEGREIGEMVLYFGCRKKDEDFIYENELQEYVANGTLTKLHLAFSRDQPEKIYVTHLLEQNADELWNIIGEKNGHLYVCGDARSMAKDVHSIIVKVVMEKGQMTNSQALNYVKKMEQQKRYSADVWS
Experiment: NADPH-cytochrome c reduction, absorbance at […] nm, Sf9 cell extract
Type: biochemical
Settings: cytochrome c as electron acceptor, 0.3 M potassium phosphate pH 7.7; NADPH 2 uL of 10 mM stock in 200 uL

SMILES: NC(=O)C1=CN([C@@H]2O[C@H](COP(=O)(O)OP(=O)(O)OC[C@H]3O[C@@H](n4cnc5c(N)ncnc54)[C@H](OP(=O)(O)O)[C@@H]3O)[C@@H](O)[C@H]2O)C=CC1 [NADPH]
- NADPH-cytochrome c reduction, absorbance at 550 nm, Sf9 cell extract: Heterologously expressed AcCPR activity was determined by spectrophotometric measurement of the activity of NADPH-cytochrome-c reduction

Reference: publication PMC6104490, “NADPH–Cytochrome P450 Reductase Mediates the Resistance of Aphis (Toxoptera) citricidus (Kirkaldy) to Abamectin” (Frontiers in Physiology, 2018)
